Values belong to the compound of their own block, whether it stands above or below them.
Target: human mGlu5a receptor (Homo sapiens (Human), UniProt P41594)
Assay: Intracellular Ca2+ mobilization assay (mGlu5 PAM)
Format: cell-based
Conditions: for EC50: HEK-293 cells stably transfected with human mGlu5a, L-glutamate added at EC20 (typically around 80 μM); for Emax: read-out: Eff. (%)
Procedure: A monoclonal HEK-293 cell line stably transfected with a cDNA encoding for the human mGlu5a receptor was generated; for the work with mGlu5 Positive Allosteric Modulators (PAMs), a cell line with low receptor expression levels and low constitutive receptor activity was selected to allow the differentiation of agonistic versus PAM activity. Cells were cultured according to standard protocols (Freshney, 2000) in Dulbecco's Modified Eagle Medium with high glucose supplemented with 1 mM glutamine, 10% (vol/vol) heat-inactivated bovine calf serum, Penicillin/Streptomycin, […] hygromycin and 15 μg/ml blasticidin (all cell culture reagents and antibiotics from Invitrogen, Basel, Switzerland).
About 24 hrs before an experiment, 5×10^4 cells/well were seeded in poly-D-lysine coated, black/clear-bottomed 96-well plates. The cells were loaded with 2.5 μM Fluo-4AM in loading buffer (1×HBSS, 20 mM HEPES) for 1 hr at 37° C. and washed five times with loading buffer. The cells were transferred into a Functional Drug Screening System 7000 (Hamamatsu, Paris, France), and 11 half logarithmic serial dilutions of test compound at 37° C. were added and the cells were incubated for 10-30 min. with on-line recording of fluorescence. Following this pre-incubation step, the agonist L-glutamate was added to the cells at a concentration corresponding to EC20 (typically around 80 μM) with on-line recording of fluorescence; in order to account for day-to-day variations in the responsiveness of cells, the EC20 of glutamate was determined immediately ahead of each experiment by recording of a full dose-response curve of glutamate.
Responses were measured as peak increase in fluorescence minus basal (i.e. fluorescence without addition of L-glutamate), normalized to the maximal stimulatory effect obtained with saturating concentrations of L-glutamate. Graphs were plotted with the % maximal stimulatory using XLfit, a curve fitting program that iteratively plots the data using Levenburg Marquardt algorithm. The single site competition analysis equation used was y=A+((B−A)/(1+((x/C)D))), where y is the % maximal stimulatory effect, A is the minimum y, B is the maximum y, C is the EC50, x is the log 10 of the concentration of the competing compound and D is the slope of the curve (the Hill Coefficient). From these curves the EC50 (concentration at which half maximal stimulation was achieved), the Hill coefficient as well as the maximal response in % of the maximal stimulatory effect obtained with saturating concentrations of L-glutamate were calculated.
A depression of the signal observed after addition of the EC20 concentration of L-glutamate was indicative of an inhibitory activity of the test compound.

[1] = maximal response in % of the maximal stimulatory effect obtained with saturating concentrations of L-glutamate

Chain of human mGlu5a receptor (P41594 other isoform, or with tags, fused parts or gaps): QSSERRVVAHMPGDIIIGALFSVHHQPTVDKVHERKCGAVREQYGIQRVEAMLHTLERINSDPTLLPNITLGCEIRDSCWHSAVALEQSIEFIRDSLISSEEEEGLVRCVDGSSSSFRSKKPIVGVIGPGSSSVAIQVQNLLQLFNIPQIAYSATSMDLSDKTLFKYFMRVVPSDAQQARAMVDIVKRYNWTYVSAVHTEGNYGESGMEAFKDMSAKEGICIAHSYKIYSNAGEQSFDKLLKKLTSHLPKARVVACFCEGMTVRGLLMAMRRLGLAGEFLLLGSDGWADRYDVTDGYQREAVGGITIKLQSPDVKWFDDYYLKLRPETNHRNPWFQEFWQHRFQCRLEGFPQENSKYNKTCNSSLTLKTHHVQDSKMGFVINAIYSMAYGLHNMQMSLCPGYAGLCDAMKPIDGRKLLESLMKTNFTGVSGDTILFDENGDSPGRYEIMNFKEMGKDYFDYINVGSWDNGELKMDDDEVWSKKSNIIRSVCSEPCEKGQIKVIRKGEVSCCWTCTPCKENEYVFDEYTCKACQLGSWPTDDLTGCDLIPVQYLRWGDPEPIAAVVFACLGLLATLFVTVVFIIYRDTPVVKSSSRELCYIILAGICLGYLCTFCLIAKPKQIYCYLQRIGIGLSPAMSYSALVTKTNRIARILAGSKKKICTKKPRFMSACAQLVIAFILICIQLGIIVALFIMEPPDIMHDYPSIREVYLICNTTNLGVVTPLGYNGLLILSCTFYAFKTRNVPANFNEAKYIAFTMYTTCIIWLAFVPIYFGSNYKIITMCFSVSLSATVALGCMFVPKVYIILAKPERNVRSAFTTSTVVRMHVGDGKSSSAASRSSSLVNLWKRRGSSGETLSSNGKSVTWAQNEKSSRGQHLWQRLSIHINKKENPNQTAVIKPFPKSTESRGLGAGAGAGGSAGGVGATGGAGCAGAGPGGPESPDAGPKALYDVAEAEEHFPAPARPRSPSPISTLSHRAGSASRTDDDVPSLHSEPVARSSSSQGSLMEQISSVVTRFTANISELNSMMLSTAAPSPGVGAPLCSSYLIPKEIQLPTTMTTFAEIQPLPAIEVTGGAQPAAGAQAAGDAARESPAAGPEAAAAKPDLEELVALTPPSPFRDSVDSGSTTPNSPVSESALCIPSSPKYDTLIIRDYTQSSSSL

SMILES: CN1C(=O)C(C)(c2ccc(C#Cc3ccccc3)cn2)CC1(C)C (racemic) [Example 20, (RS)-1,3,5,5-Tetramethyl-3-(5-(phenylethynyl)pyridin-2-yl)pyrrolidin-2-one]
- EC50: 90 nM
- Emax [1]: 109%

SMILES: CN1C(=O)C(c2ccc(C#Cc3ccccc3)cn2)CC1(C)C (racemic) [Example 1, (RS)-1,5,5-Trimethyl-3-(5-(phenylethynyl)pyridin-2-yl)pyrrolidin-2-one]
- EC50: 60 nM
- Emax [1]: 111%

SMILES: CN1CCCCC(c2ccc(C#Cc3cccc(F)c3)cn2)C1=O (racemic) [Example 24, (RS)-3-[5-(3-Fluoro-phenylethynyl)-pyridin-2-yl]-1-methyl-azepan-2-one]
- EC50: 39 nM
- Emax [1]: 69%

SMILES: COC1(c2ccc(C#Cc3ccccc3)cn2)CC(C)(C)N(C)C1=O (racemic) [Example 19, (RS)-3-Methoxy-1,5,5-trimethyl-3-(5-(phenylethynyl)pyridin-2-yl)pyrrolidin-2-one]
- EC50: 96 nM
- Emax [1]: 108%

SMILES: CN1C(=O)[C@@H](c2ccc(C#Cc3cccc(F)c3)cn2)[C@@H]2CCC[C@@H]21 (single isomer, unassigned) [Example 31, (3R,3aS,6aS) or (3S,3aR,6aR)-3-[5-(3-Fluoro-phenylethynyl)-pyridin-2-yl]-1-methyl-hexahydro-cyclopenta[b]pyrrol-2-one]
- EC50: 25 nM
- Eff. (%) [1]: 51%

SMILES: CN1C(=O)[C@H](c2ccc(C#Cc3ccccc3)cn2)[C@@H]2CCCC[C@@H]21 (racemic) [Example 35, (3SR,6SR,7SR)-1-Methyl-3-(5-phenylethynyl-pyridin-2-yl)-octahydro-indol-2-one]
- EC50: 101 nM
- Emax [1]: 60%

SMILES: CN1C(=O)[C@@H](c2ccc(C#Cc3cccc(F)c3)cn2)[C@@H]2CCCC[C@@H]21 (racemic) [Example 38, (3RS,6SR,7SR)-3-[5-(3-Fluoro-phenylethynyl)-pyridin-2-yl]-1-methyl-octahydro-indol-2-one]
- EC50: 69 nM
- Emax [1]: 60%

SMILES: CN1C(=O)C(c2ccc(C#Cc3ccccc3)nn2)CC1(C)C (racemic) [Example 11, (RS)-1,5,5-trimethyl-3-(6-(phenylethynyl)pyridazin-3-yl)pyrrolidin-2-one]
- EC50: 58 nM
- Emax [1]: 115%

SMILES: CN1CCCCC(c2ccc(C#Cc3ccc(F)cc3)cn2)C1=O (racemic) [Example 23, (RS)-3-[5-(4-Fluoro-phenylethynyl)-pyridin-2-yl]-1-methyl-azepan-2-one]
- EC50: 90 nM
- Emax [1]: 61%

SMILES: CN1C(=O)[C@H](c2ccc(C#Cc3cccc(F)c3)cn2)[C@@H]2CCCC[C@@H]21 (racemic) [Example 39, (3SR,6SR,7SR)-3-[5-(3-Fluoro-phenylethynyl)-pyridin-2-yl]-1-methyl-octahydro-indol-2-one]
- EC50: 141 nM
- Emax [1]: 61%

SMILES: CN1C(=O)C(c2ccc(C#Cc3ccc(F)cc3)cn2)CCC1(C)C (racemic) [Example 14, (RS)-3-(5-((4-Fluorophenyl)ethynyl)pyridin-2-yl)-1,6,6-trimethylpiperidin-2-one]
- EC50: 212 nM
- Emax [1]: 96%

SMILES: CN1C(=O)C(c2ccc(C#Cc3ccc(F)cc3)nn2)CC1(C)C (stereo not shown) [Example 10, 3-(6-((4-fluorophenyl)ethynyl)pyridazin-3-yl)-1,5,5-trimethylpyrrolidin-2-one]
- EC50: 247 nM
- Emax [1]: 99%

SMILES: CN1C(=O)[C@@H](c2ccc(C#Cc3ccc(F)cc3)cn2)[C@@H]2CCCC[C@@H]21 [Example 42, (3R,6S,7S)-3-[5-(4-Fluoro-phenylethynyl)-pyridin-2-yl]-1-methyl-octahydro-indol-2-one]
- EC50: 57 nM
- Emax [1]: 63%

SMILES: CN1C(=O)C(c2ncc(C#Cc3cccc(F)c3)cn2)CCC1(C)C (racemic) [Example 17, (RS)-3-(5-((3-fluorophenyl)ethynyl)pyrimidin-2-yl)-1,6,6-trimethylpiperidin-2-one]
- EC50: 132 nM
- Emax [1]: 80%

SMILES: CN1CCCCC(c2ccc(C#Cc3ccccc3)cn2)C1=O (racemic) [Example 22, (RS)-1-Methyl-3-(5-phenylethynyl-pyridin-2-yl)-azepan-2-one]
- EC50: 59 nM
- Emax [1]: 59%

SMILES: CN1C(=O)C(c2ccc(C#Cc3cccnc3)cn2)CC1(C)C (racemic) [Example 2, (RS)-1,5,5-Trimethyl-3-(5-(pyridin-3-ylethynyl)pyridin-2-yl)pyrrolidin-2-one]
- EC50: 981 nM
- Emax [1]: 107%

SMILES: CN1C(=O)C(c2ncc(C#Cc3ccc(F)cc3)cn2)CC1(C)C (racemic) [Example 8, (RS)-3-(5-((4-Fluorophenyl)ethynyl)pyrimidin-2-yl)-1,5,5-trimethylpyrrolidin-2-one]
- EC50: 390 nM
- Emax [1]: 105%

SMILES: CN1CCCC[C@H](c2ccc(C#Cc3ccccc3)cn2)C1=O (single isomer, unassigned) [Example 26, (R or S)-1-Methyl-3-(5-phenylethynyl-pyridin-2-yl)-azepan-2-one]
- EC50: 265 nM
- Emax [1]: 69%

SMILES: CN1C(=O)C(c2ncc(C#Cc3ccc(F)cc3)cn2)CCC1(C)C (racemic) [Example 16, (RS)-3-(5-((4-Fluorophenyl)ethynyl)pyrimidin-2-yl)-1,6,6-trimethylpiperidin-2-one]
- EC50: 573 nM
- Emax [1]: 96%

- EC50: 48 nM
- Emax [1]: 68%
SMILES: CN1C(=O)[C@H](c2ccc(C#Cc3cccc(F)c3)cn2)[C@H]2CCC[C@H]21 (single isomer, unassigned) [Example 32, (3S,3aR,6aR) or (3R,3aS,6aS)-3-[5-(3-Fluoro-phenylethynyl)-pyridin-2-yl]-1-methyl-hexahydro-cyclopenta[b]pyrrol-2-one]

SMILES: CN1CCCC[C@@H](c2ccc(C#Cc3ccccc3)cn2)C1=O (single isomer, unassigned) [Example 25, (S or R)-1-Methyl-3-(5-phenylethynyl-pyridin-2-yl)-azepan-2-one]
- EC50: 35 nM
- Emax [1]: 70%

SMILES: CN1C(=O)[C@@H](c2ccc(C#Cc3cccc(F)c3)cn2)[C@@H]2CCC[C@@H]21 (racemic) [Example 30, (3RS,3aSR,6aSR)-3-[5-(3-Fluoro-phenylethynyl)-pyridin-2-yl]-1-methyl-hexahydro-cyclopenta[b]pyrrol-2-one]
- EC50: 33 nM
- Emax [1]: 57%

- EC50: 103 nM
- Emax [1]: 40%
SMILES: CN1C(=O)[C@H](c2ccc(C#Cc3ccnc(Cl)c3)cn2)CC1(C)C (single isomer, unassigned) [Example 46, (R) or (S)-3-[5-(2-Chloro-pyridin-4-ylethynyl)-pyridin-2-yl]-1,5,5-trimethyl-pyrrolidin-2-one]

SMILES: CN1C(=O)C(O)(c2ccc(C#Cc3ccccc3)cn2)CC1(C)C (racemic) [Example 18, (RS)-3-Hydroxy-1,5,5-trimethyl-3-(5-(phenylethynyl)pyridin-2-yl)pyrrolidin-2-one]
- EC50: 414 nM
- Emax [1]: 126%

SMILES: CN1C(=O)[C@@H](c2ncc(C#Cc3ccccc3)cn2)[C@@H]2CCC[C@@H]21 (racemic) [Example 33, (3RS,3aSR,6aSR)-1-Methyl-3-(5-phenylethynyl-pyrimidin-2-yl)-hexahydro-cyclopenta[b]pyrrol-2-one]
- EC50: 52 nM
- Emax [1]: 52%

SMILES: CN1C(=O)[C@H](c2ccc(C#Cc3ccccc3)cn2)[C@H]2CCCC[C@H]21 [Example 37, (3S,6R,7R)-1-Methyl-3-(5-phenylethynyl-pyridin-2-yl)-octahydro-indol-2-one]
- EC50: 84 nM
- Emax [1]: 49%

SMILES: CN1C(=O)C(c2ccc(C#Cc3cccc(F)c3)cn2)CCC1(C)C (racemic) [Example 13, (RS)-3-(5-((3-Fluorophenyl)ethynyl)pyridin-2-yl)-1,6,6-trimethylpiperidin-2-one]
- EC50: 98 nM
- Emax [1]: 90%

SMILES: CN1C(=O)C(c2ncc(C#Cc3cccc(F)c3)cc2F)CC1(C)C (racemic) [Example 21, (RS)-3-(3-fluoro-5-((3-fluorophenyl)ethynyl)pyridin-2-yl)-1,5,5-trimethylpyrrolidin-2-one]
- EC50: 188 nM
- Emax [1]: 91%

SMILES: CN1C(=O)[C@@H](c2ccc(C#Cc3ccccc3)cn2)[C@@H]2CCCC[C@@H]21 [Example 36, (3R,6S,7S)-1-Methyl-3-(5-phenylethynyl-pyridin-2-yl)-octahydro-indol-2-one]
- EC50: 84 nM
- Emax [1]: 92%
